The results in this text go back to patent US8536187B2 (Gilead Sciences, Inc., priority 2008, dated 2013).

The test system of data set [1] is HCV replicon in human hepatoma Huh-7 cell line. The data set is described as follows: Anti-HCV replicon assay, EC50 (luciferase luminescence). To be noted: Hepatitis C virus, Huh-7, 72 h. Type of data set: cell-based. On the procedure: (§1) The anti-HCV activity of the pyrido[3,2-d]pyrimidine derivatives of this invention was tested in a human hepatoma Huh-7 cell line harboring a HCV replicon. The assay comprised the following steps: • Step 1: compound preparation and serial dilution: serial dilution is performed in 50% DMSO in a 384-well plate. A solution containing a compound at 100-fold concentration of the starting final serial dilution concentration was prepared in 50% DMSO and added to the pre-specified wells in column 1 of a polypropylene 384-well plate. The plate was then placed on a Precision 2000 Workstation to start the serial dilution. After the serial dilution, a volume of 2 μL of the solution was transferred from the 384-well plate to a 96-well cell culture plate containing 100 μL of cell media on a Biomek FX Workstation. The DMSO concentration in the final assay condition was 0.5% after cells are added to the plate and the total volume in each well is brought to 200 μL. • Step 2: to each well of the serial dilution plate prepared above, 100 μL of cell media containing 6000 suspended Huh-7 HCV replicon cells was added with a Multidrop workstation. The plates were incubated for 3 days at 37° C. with 5% CO2. • Step 3: detection: • a) for the EC50 assay, the media in a 96-well cell culture plate was aspirated with a Biotek EL405 plate-washer. A volume of 200 μL of a solution containing a 1:1 mixture of cell-lysis buffer (Promega, Luciferase Cell Culture Lysis 5× Reagent, cat. #E1531) and luciferase substrate solution (Promega, Luciferase Assay, cat.# E4550) was added to each well of the plate with Multidrop. The plate was incubated for 30 minutes at room temperature before the luminescence signal was measured with a TopCount plate-reader. • b) for the CC50 assay, a volume of 100 μL of pre-mixed CellTiter-Glo (Promega, cat.# G7572) solution is added directly to the cell culture in each well of the plate and the luminescence signal is measured with a TopCount plate-reader after 10 minutes of incubation at room temperature.
Background: In antiviral work, replicon cells carry a viral genome segment that copies itself.

The nature of data set [2]: CC50 assay (CellTiter-Glo) in Huh-7 HCV replicon cells. To be noted: human, Table 2, 3 days incubation. Type of data set: cell-based. On the procedure: as §1
(In general: In ATP-based viability assays light output follows the ATP content of the culture.)

pEC50: −log10 of the molar value. Where only a bound is given, the exact number is not on record here.

In turn, `C[C@@H](Nc1nc(NC2(C(F)(F)F)CC2)c2nc(-c3ccc(F)cc3)ccc2n1)c1ccc(S(N)(=O)=O)c(C(F)(F)F)c1` [Example 119, (R)-4-(1-(6-(4-fluorophenyl)-4-(1-(trifluoromethyl)cyclo-propylamino)pyrido[3,2-d]pyrimidin-2-ylamino)ethyl)-2-(trifluoromethyl)benzene-sulfonamide] showed a pEC50 in data set [1] of 5.70 to 6.60. This molecule also displayed a CC50 at 3 days in data set [2] of over 10000 nM.

As for `NS(=O)(=O)c1ccc(CNc2nc(NC3(C(F)(F)F)CC3)c3nc(-c4ccc(F)cc4)ccc3n2)cc1` [Example 23, 4-{[6-(4-fluoro-phenyl)-4-(1-trifluoromethyl-cyclopropylamino)-pyrido[3,2-d]pyrimidin-2-ylamino]-methyl}-benzenesulfonamide], in data set [1], the pEC50 is over 7.00. For the same molecule, in data set [2], the CC50 at 3 days lay in the range of 1000 to 10000 nM.

In data set [1], `NS(=O)(=O)c1cc(Cl)cc(CNc2nc(NCC(F)(F)F)c3nc(C#CC4CC4)ccc3n2)c1` [Example 280, 3-chloro-5-((6-(2-cyclopropyl-ethynyl)-4-(2,2,2-trifluoro-ethylamino)pyrido[3,2-d]pyrimidin-2-ylamino)methyl) benzenesulfonamide] gave a pEC50 of over 7.00. In addition, the CC50 at 3 days in data set [2] is over 10000 nM.

The molecule `C[C@@H](Nc1nc(NCC(F)(F)F)c2nc(C#CC(C)(C)C)ccc2n1)c1ccc(S(N)(=O)=O)cc1` [Example 285, (R)-4-(1-(6-(3,3-dimethylbut-1-ynyl)-4-(2,2,2-trifluoroethyl-amino)pyrido[3,2-d]pyrimidin-2-ylamino)ethyl)benzene-sulfonamide] showed a pEC50 in data set [1] of 5.70 to 6.60. Further, in data set [2], the CC50 at 3 days was over 10000 nM.

Molecule `Fc1cc(-c2ccc3nc(NCc4cccc(-n5cncn5)c4)nc(NC4(C(F)(F)F)CC4)c3n2)cnc1NC1CC1` [Example 62, N^2-(3-(1H-1,2,4-triazol-1-yl)benzyl)-6-(6-(cyclopropylamino)-5-fluoropyridin-3-yl)-N^4-(1-(trifluoromethyl)cyclopropyl) pyrido[3,2-d]pyrimidine-2,4-diamine] gave a pEC50 in data set [1] of over 7.00. Further, the CC50 at 3 days in data set [2] was over 10000 nM.

With `NS(=O)(=O)c1cc(Cl)cc(CNc2nc(NC3(C(F)(F)F)CC3)c3nc(-c4ccc(N5CNCC5=O)cc4)ccc3n2)c1` [Example 45, 3-chloro-5-((6-(4-(5-oxoimidazolidin-1-yl)phenyl)-4-(1-(trifluoromethyl)cyclopropylamino)pyrido [3,2-d]pyrimidin-2-ylamino)methyl)benzenesulfonamide], in data set [1], the pEC50 is over 7.00. The molecule also gave a CC50 at 3 days in data set [2] of 1000 to 10000 nM.

In turn, `NS(=O)(=O)c1ccc(CNc2nc(NC3(C(F)(F)F)CC3)c3nc(-c4ccc(F)nc4)ccc3n2)cc1` [Example 96, 4-((6-(6-fluoropyridin-3-yl)-4-(1-(trifluoromethyl)cyclopropyl-amino)pyrido[3,2-d]pyrimidin-2-ylamino)methyl)benzene-sulfonamide] had a pEC50 in data set [1] of over 7.00. The molecule also registered a CC50 at 3 days in data set [2] of 1000 to 10000 nM.

For `C#Cc1ccc2nc(N[C@H](C)c3ccc(S(N)(=O)=O)cc3)nc(NCC(F)(F)F)c2n1` [Example 284, (R)-4-(1-(6-ethynyl-4-(2,2,2-trifluoroethylamino)pyrido [3,2-d]pyrimidin-2-ylamino)ethyl)benzenesulfonamide], the pEC50 in data set [1] was over 7.00. The molecule further registered a CC50 at 3 days in data set [2] of over 10000 nM.

`CCOc1ccc(-c2ccc3nc(NCc4ccc(-n5cncn5)cc4)nc(NCC(F)(F)F)c3n2)cn1` [Example 229, N^2-(4-(1H-1,2,4-triazol-1-yl)benzyl)-6-(6-ethoxypyridin-3-yl)-N^4-(2,2,2-trifluoroethyl) pyrido[3,2-d]pyrimidine-2,4-diamine] showed a pEC50 in data set [1] of over 7.00. In data set [2], this molecule came in with a CC50 at 3 days of over 10000 nM.

With `CCOc1ccc(-c2ccc3nc(NCc4ccc(-n5cncn5)cc4)nc(NCC(F)(F)F)c3n2)cc1S(N)(=O)=O` [Example 243, 5-(2-(4-(1H-1,2,4-triazol-1-yl)benzylamino)-4-(2,2,2-trifluoroethylamino)pyrido [3,2-d]pyrimidin-6-yl)-2-ethoxybenzenesulfonamide], in data set [1], the pEC50 is over 7.00. Further, the CC50 at 3 days in data set [2] was over 10000 nM.

Take `COc1ccc(-c2ccc3nc(NCc4cc(F)cc(F)c4)nc(NC4(C(F)(F)F)CC4)c3n2)cc1S(C)(=O)=O` [Example 40, N^2-(3,5-difluorobenzyl)-6-(4-methoxy-3-(methylsulfonyl)phenyl)-N^4-(1-(trifluoromethyl)cyclopropyl)pyrido[3,2-d] pyrimidine-2,4-diamine]: the negative-log EC50 (pEC50) in data set [1] was over 7.00. In data set [2], this molecule came in with a CC50 at 3 days of 1000 to 10000 nM.

As for `CCOc1ccc(-c2ccc3nc(N[C@H](C)c4ccc(S(N)(=O)=O)cc4)nc(OC4(C)CC4)c3n2)cc1S(N)(=O)=O` [Example 264, 4-((R)-1-(6-(4-ethoxy-3-(aminosulfonyl)phenyl)-4-(1-methylcyclopropoxy)pyrido [3,2-d]pyrimidin-2-ylamino)ethyl)benzenesulfonamide], the pEC50 in data set [1] is over 7.00. In data set [2], this molecule yielded a CC50 at 3 days of 1000 to 10000 nM.

For the molecule `COc1ccc(-c2ccc3nc(NCc4cc(C(F)(F)F)cc(S(N)(=O)=O)c4)nc(NCC(F)(F)F)c3n2)cc1S(C)(=O)=O` [Example 141, 3-((6-(4-methoxy-3-(methylsulfonyl)phenyl)-4-(2,2,2-trifluoroethylamino)pyrido[3,2-d]pyrimidin-2-ylamino)methyl)-5-(trifluoromethyl)benzene-sulfonamide], the pEC50 in data set [1] is over 7.00. This molecule also came in with a CC50 at 3 days in data set [2] of over 10000 nM.

In data set [1], `N#Cc1cc(CNc2nc(NC3(C(F)(F)F)CC3)c3nc(-c4ccc(F)cc4)ccc3n2)cc(S(N)(=O)=O)c1` [Example 49, 3-cyano-5-((6-(4-fluorophenyl)-4-(1-(trifluoromethyl)cyclopropyl-amino)pyrido[3,2-d]pyrimidin-2-ylamino)methyl)benzene-sulfonamide] gave a negative logarithm of the EC50 (pEC50) of over 7.00. The molecule further gave a CC50 at 3 days in data set [2] of over 10000 nM.

As to `C#Cc1ccc2nc(N[C@H](C)c3ccc(S(N)(=O)=O)cc3)nc(OC3(C)CC3)c2n1` [Example 295, (R)-4-(1-(6-ethynyl-4-(1-methylcyclopropoxy)pyrido [3,2-d]pyrimidin-2-ylamino)ethyl)benzenesulfonamide], the pEC50 in data set [1] was over 7.00. For the same molecule, in data set [2], the CC50 at 3 days lay in the range of 1000 to 10000 nM.

For `COCC#Cc1ccc2nc(NCc3cc(Cl)cc(S(N)(=O)=O)c3)nc(NC3(C(F)(F)F)CC3)c2n1` [Example 46, 3-chloro-5-((6-(3-methoxyprop-1-ynyl)-4-(1-(trifluoromethyl)cyclopropyl-amino)pyrido[3,2-d]pyrimidin-2-ylamino)methyl)benzene-sulfonamide], the pEC50 in data set [1] was over 7.00. In data set [2], this molecule had a CC50 at 3 days of over 10000 nM.

The molecule `C[C@@H](Nc1nc(NCC(F)(F)F)c2nc(C#CC(C)(C)O)ccc2n1)c1ccc(S(N)(=O)=O)cc1` [Example 276, (R)-4-(1-(6-(3-hydroxy-3-methylbut-1-ynyl)-4-(2,2,2-trifluoroethylamino)pyrido [3,2-d]pyrimidin-2-ylamino)ethyl)benzenesulfonamide] showed a pEC50 in data set [1] of 5.70 to 6.60. In data set [2], this molecule gave a CC50 at 3 days of over 10000 nM.

`C[C@H](Cn1cncn1)Nc1nc(NCC(F)(F)F)c2nc(-c3ccc(OC4CC4)nc3)ccc2n1` [Example 258, N^2-((R)-1-(1H-1,2,4-triazol-1-yl)propan-2-yl)-6-(6-cyclo-propoxypyridin-3-yl)-N^4-(2,2,2-trifluoroethyl)pyrido[3,2-d] pyrimidine-2,4-diamine]: the pEC50 in data set [1] is over 7.00. In data set [2], this molecule had a CC50 at 3 days of over 10000 nM.

Turning to `CS(=O)(=O)c1cccc(-c2ccc3nc(NCc4ccc(-n5cccn5)cc4)nc(NCC(F)(F)F)c3n2)c1` [Example 167, N^2-(4-(1H-pyrazol-1-yl)benzyl)-6-(3-(methylsulfonyl)phenyl)-N^4-(2,2,2-trifluoroethyl)pyrido [3,2-d]pyrimidine-2,4-diamine], the pEC50 in data set [1] is over 7.00. In addition, the CC50 at 3 days in data set [2] is over 10000 nM.

The molecule `C#Cc1ccc2nc(N[C@H](C)c3ccc(S(N)(=O)=O)cc3)nc(OC(C)C)c2n1` [Example 306, (R)-4-(1-(6-ethynyl-4-isopropoxypyrido[3,2-d]pyrimidin-2-ylamino)ethyl) benzenesulfonamide] had a negative logarithm of the EC50 (pEC50) in data set [1] of 5.70 to 6.60. Also, the CC50 at 3 days in data set [2] is under 1000 nM.

In data set [1], `CCOc1ccc(-c2ccc3nc(NCc4ccc(-n5cncn5)cc4)nc(OC4(C)CC4)c3n2)cc1S(N)(=O)=O` [Example 263, 5-(2-(4-(1H-1,2,4-triazol-1-yl)benzylamino)-4-(1-methylcyclopropoxy)pyrido [3,2-d)pyrimidin-6-yl)-2-ethoxybenzenesulfonamide] showed a negative logarithm of the EC50 (pEC50) of over 7.00. Also, the CC50 at 3 days in data set [2] lay in the range of 1000 to 10000 nM.

`CCOc1ccc(-c2ccc3nc(N[C@H](C)c4ccc(S(N)(=O)=O)cc4)nc(NCC(F)(F)F)c3n2)cc1S(N)(=O)=O` [Example 261, 4-((R)-1-(6-(4-ethoxy-3-(aminosulfonyl)phenyl)-4-(2,2,2-trifluoroethylamino)pyrido[3,2-d]pyrimidin-2-ylamino)ethyl)benzene-sulfonamide] had a pEC50 in data set [1] of over 7.00. In data set [2], this molecule returned a CC50 at 3 days of over 10000 nM.

As usually defined, the pEC50 is −log10 of the EC50, conventionally taken in molar units. What is called CC50 is the concentration that lowers cell viability or growth by half. A higher CC50 goes with better tolerance by the cells.
